Measured values from US20090221664A1, “PHARMACEUTICAL COMPOSITIONS OF MUSCARINIC RECEPTOR ANTAGONISTS” (priority 2005, published 2009).

Test system: carbachol precontracted guinea-pig isolated trachea
Assay: In-vitro functional assay: relaxation of carbachol precontracted guinea-pig isolated trachea by PDE-IV inhibitors with or without MRA preincubation
Settings: for Potentiation of relaxant activity by preincubation with C No. 66: C No. 66 at 1 nM before contraction with carbachol
Experimental: Guinea Pigs (400-600 gm) were procured and trachea was removed under anesthesia (sodium pentobarbital, 300 mg/kg i.p) and immediately kept in ice-cold Krebs Henseleit buffer. Indomethacin (10 uM) was present throughout the KH buffer to prevent the formation of bronchoactive prostanoids.
The tissue of adherent fascia was removed and cut into strips of equal size (with approx. 4-5 tracheal rings in each strip). The epithelium was removed by careful rubbing, minimizing damage to the smooth muscle. […] Opposite ends of the cut rings were tied with the help of a thread. The tissue was mounted in isolated tissue baths containing 10 ml Krebs Henseleit buffer maintained at 37° C. and bubbled with carbogen, at a basal tension of 1 gm. The buffer was changed 4-5 times for about an hour. Equilibration of the tissue was done for 1 hr for stabilization. After 1 hr, the tissue was challenged with 1 μM carbachol. This was repeated after every 2-3 washes till two similar consecutive responses were obtained. At the end of stabilization, the tissues were incubated with suboptimal dose of MRA/Vehicle for 20 minutes prior to contraction of the tissues with 1 μM carbachol. The relaxant activity of the PDE-IV inhibitor [10^−9M to 10^−4 M] on the stabilized developed tension/response was subsequently assessed. The contractile response of tissues was recorded either on Powerlab data acquisition system or on Grass polygraph (Model 7). The relaxation was expressed as percentage of maximum carbachol response and EC25 was calculated as the concentration producing 25% of the maximum relaxation to 1 μM carbachol. The percent relaxation between the treated and control tissues were compared using non-parametric unpaired t-test. A p value of <0.05 is considered to be statistically significant.

[1] = PDE-IV inhibitor alone, concentration producing 25% of the maximum relaxation to 1 μM carbachol
[2] = relaxation by the PDE-IV inhibitor in the presence of C No. 66 (1 nM preincubation), 1 μM carbachol

| Structure (SMILES) | Potentiation of relaxant activity by preincubation with C No. 66 | - Log[EC25] [1] | EC25 [1] [µM] | - Log[EC25] [2] |
| --- | --- | --- | --- | --- |
| COc1ccc(C2CNC(=O)C2)cc1OC1CCCC1 (centres unmarked) [Rolipram] | no significant potentiation | 5.25 | 7.6 |  |
| COc1ccc(C2=NO[C@]3(CCOC3)C2)cc1OC1CCCC1 [Compound No. 124aa, (S)-3-[3-(cyclopentyloxy)-4-methoxyphenyl]-1,7-dioxa-2-azaspiro[4.4]non-2-ene] | potentiated | 4.40 | 41.8 | 5.53 |
| O=C(Nc1c(Cl)cncc1Cl)c1ccc(OC(F)F)c(OCC2CC2)c1 [Roflumilast] | potentiated | 4.46 | 44.2 | 6.25 |
